{
  "source": "patent US7659053B2",
  "about": "“Methods of alteration of surface affinities using non-chemical force-creating fields” (President and Fellows of Harvard College, priority 2003, dated 2010)",
  "data": [
    {"tested_on": "BCE cells", "experiment": "Cell motility screening assay: migration of patterned BCE cells out of patterns after voltage pulse", "assay_type": "cell-based, Bovine", "settings": "drug added before voltage pulse (−1.2 V, 30 s), fumagillin 100 mM, cycloheximide 1 mg/mL, nocodozole 1 mg/mL", "description": "Time-lapse images were acquired on a Leica inverted microscope equipped with a commercially available on-stage incubation chamber that maintained the temperature at 37° C. and the CO2 concentration at 10% at all times. To prevent the evaporation of water, the culture dish was covered with a thin layer of mineral oil (Sigma-Aldrich, St. Louis, Mo.). Phase-contrast images were acquired by a Hamamatsu video camera using METAMORPH® software (Universal Imaging Inc., Downingtown, Pa.). Fluorescent images were acquired through a charge-coupled device from Hamamatsu (ORCA-ER). Quantification of cell shapes for the analysis of the fractional coverage of the surface was performed with an image analysis routine in Metamorph. Briefly, the cells were outlined and the total areas that the cells occupied were calculated. The calculated area was then divided by the total area of the field of view in the micrograph to obtain the normalized fractional coverage by cells. The LIVE/DEAD® assay kit was obtained from Molecular Probes (Eugene, Oreg.).\nBCE cells were patterned on a gold-coated substrate coated with C18 and C11EG3 thiols in discrete patterned regions, similar to those shown in FIG. 1 by techniques similar to those described above in Example 1. Additionally, serum-containing media was used in some instances. […]", "values": [
      {"compound": "CO[C@@H]1[C@H](OC(=O)/C=C/C=C/C=C/C=C/C(=O)O)CC[C@]2(CO2)[C@H]1[C@@]1(C)O[C@@H]1CC=C(C)C", "note": "[Fumagillin, fumagillin]", "effect on cell migration out of the patterns": "reduce the rates of cell migration"},
      {"compound": "C[C@@H]1C[C@@H]([C@H](O)CC2CC(=O)NC(=O)C2)C(=O)[C@@H](C)C1", "note": "[cycloheximide]", "effect on cell migration out of the patterns": "reduce the rates of cell migration"}
    ]},
    {"tested_on": "NIH 3T3 fibroblast cells", "experiment": "Culture of NIH 3T3 fibroblasts on micropatterned SAMs on gold and palladium", "assay_type": "cell-based", "settings": "NIH 3T3 cells", "description": "To test the ability of SAMs on palladium to support the adhesion and growth of cells in micropatterns, certain features on the substrates were defined using microcontact printing, using techniques similar to those described above. A poly(dimethylsiloxane) (PDMS) stamp that carried microfeatures was inked with 2 mM octadecanethiol (C18) in ethanol, dried under a stream of nitrogen, then brought it into contact with the palladium films for 2 to 10 seconds. Next, the palladium film was immersed in ethanolic solutions containing 2 mM of thiols A, B, or C for up to 50 hours.\nNIH 3T3 fibroblast cells were then cultured on these micropatterned substrates. […] In contrast, OEG-terminated SAMs on the same substrate prevented the adhesion of cells during the same times.", "values": [
      {"compound": "OCCOCCOCCOCCOCCOCCOCCOCCCS", "note": "[Compound 2, HS(CH2)3(OCH2CH2)7OH]", "adhesion of cells on SAM region": "prevented the attachment of cells"},
      {"compound": "OCCOCCOCCOCCCCCCCCCCCS", "note": "[Compound C11EG3, HS—(CH2)11—(O—CH2—CH2)3—OH]", "adhesion of cells on SAM region": "prevented the attachment of cells"},
      {"compound": "CCCCCCCCCCCCCCCCCCS", "note": "[Compound C18, HS—(CH2)17—CH3]", "adhesion of cells on SAM region": "supported the adhesion of cells"},
      {"compound": "OCCOCCOCCOCCOCCOCCOCCCCCCCCCCCS", "note": "[thiol B, HS(CH2)11(OCH2CH2)6OH]", "adhesion of cells on SAM region": "prevented the attachment of cells"}
    ]}
  ]
}
